Test results published in US12458616B2, “Levodopa dosing regimen” (Amneal Pharmaceuticals, LLC, priority 2020, dated 2025).
Read-outs that look alike come from different tables or passages of the source.

Assays:
[1] = cited from earlier work
[2] = Example 12 pharmacokinetics in healthy subjects: fed, sprinkled on applesauce, fasted; type: in vivo, human; settings: Example 7 capsule 350 mg LD/87.5 mg CD; for Tmax: median (min-max); for AUC(0-t): hour 0 to 24 hours; for Cmax: po, single oral dose
Method: The dosage forms described in Example 7 were administered to 27 healthy male and female subjects between the ages of 18 and 55 with a body weight of at least 55 kg and body mass index of 18.5 to 30.0 kg/m^2 in a single site, open label, single dose, 3-treatment, 3-period, crossover study. The subjects were fasted overnight for at least 10 hours and received a single dose of 350 mg LD and 87.5 CD for each treatment separated by a 6 to 7 day washout period.
No additional food was allowed for at least 4 hours post dose.
Treatment B comprised the oral administration of one capsule prepared in accordance with Example 7 containing 350 mg LD and 87.5 mg CD wherein the contents of the capsule were sprinkled onto 1 tablespoon of applesauce. No additional food was allowed for at least 4 hours post dose.
Treatment C comprised the oral administration of one capsule prepared in accordance with Example 7 containing 350 mg LD and 87.5 mg CD with 240 mL of water. No food was allowed for at least 4 hours post dose.
For Treatments A and C the subjects were instructed to swallow the capsule intact and not to chew, divide or crush the tablet.
For Treatment B, the subjects were instructed to consume all the applesauce without crushing or chewing the beads.
Whole blood samples were taken prior to dosing and at 0.5, 1, 1.5, 2, 2.5, 3, 4, 5, 6, 7, 8, 10, 12, 16 and 24 hours post dose. The plasma samples were analyzed for concentrations of CD and LD by a validated liquid chromatography-tandem mass spectrometry (LC-MS/MS) method. Peak plasma (Cmax), area under the plasma concentration-time curve (AUCt and AUC∞), and time to maximum concentration (Tmax) for LD and CD were evaluated. The mean pharmacokinetic parameters are showing in the following table and in FIGS. 20 and 21.

[3] = both sexes, human, plasma, oral, Fasted, mean ± SD
[4] = both sexes, human, plasma, oral, Fasted, read-out: Tmax
[5] = both sexes, human, plasma, oral, Fed, read-out: Tmax
[6] = both sexes, human, plasma, oral, Fed, mean ± SD
[7] = both sexes, human, plasma, oral, Sprinkled on Applesauce, mean ± SD
[8] = both sexes, human, plasma, Fasted, mean ± SD
[9] = both sexes, human, plasma, Fed (high-fat breakfast), mean ± SD
[10] = both sexes, human, plasma, Sprinkled on Applesauce, mean ± SD

T1/2 ([2]; Fed, mean ± SD) [h]	Tmax ([2]; Sprinkled on Applesauce)	half-life [2, 3] [h]	Tmax [2, 4] [h]	AUC(0-t) [2, 3] [ng·h/mL]	Tmax [2, 5] [h]	AUC(0-t) [2, 6] [ng·h/mL]	half-life [2, 7] [h]	AUC(0-t) [2, 7] [ng·h/mL]	Cmax [2, 8] [ng/mL]	Cmax [2, 9] [ng/mL]	Cmax [2, 10] [ng/mL]	half-life [2, 6] [h]	Tmax ([2]; both sexes, human, plasma, oral, Sprinkled on Applesauce, read-out: Tmax) [h]	Compound	plasma half-life ([1]; orally administered with CD)	plasma half-life ([1]; orally administered without CD)
1.79 ± 0.3	0.5 (0.5-5.0) h	2 ± 0.3	2	9120 ± 2150	4	10600 ± 1430	2.02 ± 0.31	8330 ± 1960	1830 ± 385	2190 ± 473	1630 ± 409			N[C@@H](Cc1ccc(O)c(O)c1)C(=O)O [LD, levodopa]	about 1.5 hours	about 50 minutes
		3.9 ± 0.56	3	2180 ± 906	4	751 ± 205	3.95 ± 0.67	1910 ± 618	404 ± 157	141 ± 41.1	339 ± 91.8	3.86 ± 0.78	2.5	C[C@@](Cc1ccc(O)c(O)c1)(NN)C(=O)O [Carbidopa]		
